Active and inactive are the calls of the source. No cut-off for these calls is given here.
Assays:
Homo sapiens = organism: Homo sapiens; assay: Cytotoxicity against […] cells assessed as reduction in cell viability at 30 to 500 uM after 72 hrs by MTT assay; format: functional, cell-based
[1] = target: E3 ubiquitin-protein ligase XIAP (Homo sapiens, UniProt P98170); assay: Binding affinity to BIR3 domain of XIAP by competitive fluorescent binding assay
Chain of E3 ubiquitin-protein ligase XIAP (P98170 whole entry, the tested form may be a part): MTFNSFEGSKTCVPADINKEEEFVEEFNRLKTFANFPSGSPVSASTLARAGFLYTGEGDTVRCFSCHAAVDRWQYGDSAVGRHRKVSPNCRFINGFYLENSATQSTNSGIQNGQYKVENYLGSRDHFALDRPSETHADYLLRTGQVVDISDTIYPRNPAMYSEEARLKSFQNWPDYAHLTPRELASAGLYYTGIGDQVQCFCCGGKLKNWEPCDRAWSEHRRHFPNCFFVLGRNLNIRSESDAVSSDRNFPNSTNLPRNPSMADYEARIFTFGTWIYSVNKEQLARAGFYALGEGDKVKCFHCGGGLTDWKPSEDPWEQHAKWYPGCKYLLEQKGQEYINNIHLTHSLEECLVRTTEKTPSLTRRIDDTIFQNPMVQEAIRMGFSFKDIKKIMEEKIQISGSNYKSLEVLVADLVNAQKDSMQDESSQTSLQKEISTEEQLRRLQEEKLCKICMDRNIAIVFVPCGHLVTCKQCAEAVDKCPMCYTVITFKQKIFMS

Row | Kd [1] | Compound | Activity (Homo sapiens)
1 |  | C[C@H](N)c1nc(C(=O)N2CCC[C@H]2C(=O)N[C@@H](Cc2c[nH]c3ccccc23)C(=O)O)co1 | Active
2 |  | CC[C@H](C)[C@H](NC(=O)[C@@H]1CCCN1C(=O)[C@@H](NC(=O)[C@H](C)N)C(C)C)C(=O)O | inactive
3 | 11 µM | C[C@H](N)c1nc(C(=O)N2CCC[C@H]2C(=O)N[C@@H](Cc2ccccc2)C(=O)O)co1 | 
4 | 300 µM | CC[C@H](C)[C@H](NC(=O)[C@@H]1CCCN1C(=O)c1coc([C@H](C)N)n1)C(=O)O | 

From ChEMBL document CHEMBL1147874, “Structure-activity based study of the Smac-binding pocket within the BIR3 domain of XIAP” (Bioorg Med Chem, 2007)
